Measured values as given in patent US8455688B2, “HDAC inhibitors” (Lixte Biotechnology, Inc., priority 2007, dated 2013).
“Also recorded” adds a separate entry of the source.

Experiments:
MDA-MB-231 Breast = test: CellTiter-Glo proliferation assay, MDA-MB-231; format: cell-based; conditions: Homo sapiens, 72 hr incubation, read-out: IC50 (50% inhibition of proliferation)
Description: (§1) MDA-MB-231, HT-29, NCI-H460, NCI-H522, NCI-H69, GXF-209, HepG2, OVAR-3, PANC-1, DU-145, LNCAP, HL-60, K-562, and MOLT-4 cell lines were either obtained from the American Type Culture Collection (ATCC; Manassas, Va.), or from the National Cancer Institute (NCl; Frederick, Md.). RPM-1640 media, L-glutamine dipeptide (HyQ SG-200), and HEPES were obtained from Hyclone (Logan, Utah). Fetal bovine serum (FBS) was obtained from Sigma-Aldrich, (St. Louis, Mo.). DMSO was purchases from Fisher Chemicals (Fair Lawn, N.J.). The CellTiter-Glo Luminescent Cell Viability Assay reagent was obtained from Promega Corporation (Madison, Wis.). All tissue culture plasticware was obtained from Corning Incorporated (New York, N.Y.). Compound 100 and Compound 102 were provided by Lixte Biotechnology Holdings, Inc. (East Setauket, N.Y.). All cell lines were routinely cultured twice weekly in RPMI-1640 medium supplemented with 2 mM L-glutamine dipeptide, 10 mM HEPES, and 10% FBS. The adherent cell lines MDA-MB-231, HT-29, NCI-H460, NCI-H522, GXF-209, HepG2, OVAR-3, PANC-1, DU-145, and LNCAP cells were each seeded into two 96-well plates at 2,500 cells per well in a total volume of 50 uL and incubated in a 37 C humidified 5% CO2 cell culture incubator overnight. […] Luminescence was then recorded using the PerkinElmer Microbeta scintillation and luminescence counter (Trilux).

HT-29 Colon = test: CellTiter-Glo proliferation assay, HT-29; format: cell-based; conditions: Homo sapiens, 72 hr incubation, read-out: IC50 (50% inhibition of proliferation)
Description: as §1

NCI-H460 Lung large cell = test: CellTiter-Glo proliferation assay, NCI-H460; format: cell-based; conditions: Homo sapiens, 72 hr incubation, read-out: IC50 (50% inhibition of proliferation)
Description: as §1

NCI-H522 Lung adenoca = test: CellTiter-Glo proliferation assay, NCI-H522; format: cell-based; conditions: Homo sapiens, 72 hr incubation, read-out: IC50 (50% inhibition of proliferation)
Description: as §1

NCI-H69 Lung small cell = test: CellTiter-Glo proliferation assay, NCI-H69; format: cell-based; conditions: Homo sapiens, 72 hr incubation, read-out: IC50 (50% inhibition of proliferation)
Description: as §1

GXF-209 Stomach = test: CellTiter-Glo proliferation assay, GXF-209; format: cell-based; conditions: Homo sapiens, 72 hr incubation, read-out: IC50 (50% inhibition of proliferation)
Description: as §1

HepG2 Hepatoma = test: CellTiter-Glo proliferation assay, HepG2; format: cell-based; conditions: Homo sapiens, 72 hr incubation, read-out: IC50 (50% inhibition of proliferation)
Description: as §1

OVCAR-3 Ovary adenoca = test: CellTiter-Glo proliferation assay, OVCAR-3; format: cell-based; conditions: Homo sapiens, 72 hr incubation, read-out: IC50 (50% inhibition of proliferation)
Description: as §1

PANC-1 Pancreas = test: CellTiter-Glo proliferation assay, PANC-1; format: cell-based; conditions: Homo sapiens, 72 hr incubation, read-out: IC50 (50% inhibition of proliferation)
Description: as §1

DU-145 Prostate = test: CellTiter-Glo proliferation assay, DU-145; format: cell-based; conditions: Homo sapiens, 72 hr incubation, read-out: IC50 (50% inhibition of proliferation)
Description: as §1

LNCAP Prostate = test: CellTiter-Glo proliferation assay, LNCAP; format: cell-based; conditions: Homo sapiens, 72 hr incubation, read-out: IC50 (50% inhibition of proliferation)
Description: as §1

[1] = tested on: HL-60 Leukemia promyelocytic; test: CellTiter-Glo proliferation assay, HL-60; format: cell-based; conditions: Homo sapiens, 72 hr incubation, estimated from the data, no curve fit possible, read-out: IC50 (50% inhibition of proliferation)
Description: as §1

[2] = tested on: K562 Leukemia chronic myelo; test: CellTiter-Glo proliferation assay, K562; format: cell-based; conditions: Homo sapiens, 72 hr incubation, read-out: IC50 (50% inhibition of proliferation)
Description: as §1

[3] = tested on: MOLT-4 Leukemia acute lympho; test: CellTiter-Glo proliferation assay, MOLT-4; format: cell-based; conditions: Homo sapiens, 72 hr incubation, read-out: IC50 (50% inhibition of proliferation)
Description: as §1

[4] = tested on: medulloblastoma cell line DAOY; test: Inhibition of growth of medulloblastoma cell line DAOY; format: cell-based
SHSY-5Y xenografts = test: Inhibition of SHSY-5Y xenografts; conditions: in vivo
normal mouse brain cells = test: Viability of normal mouse brain cells
human cancer cell lines = test: Proliferation of multiple human cancer cell lines (panel summary); format: cell-based; conditions: panel of Table 2
Description: as §1

| Compound | IC50 (MDA-MB-231 Breast) [µM] | IC50 (HT-29 Colon) [µM] | IC50 (NCI-H460 Lung large cell) [µM] | IC50 (NCI-H522 Lung adenoca) [µM] | IC50 (NCI-H69 Lung small cell) [µM] | IC50 (GXF-209 Stomach) [µM] | IC50 (HepG2 Hepatoma) [µM] | IC50 (OVCAR-3 Ovary adenoca) [µM] | IC50 (PANC-1 Pancreas) [µM] | IC50 (DU-145 Prostate) [µM] | IC50 (LNCAP Prostate) [µM] | IC50 [1] [µM] | IC50 [2] [µM] | IC50 [3] [µM] | activity against medulloblastoma cell line DAOY [4] | activity against the growth of SHSY-5Y xenografts (SHSY-5Y xenografts) | viability of normal mouse brain cells compared to control (normal mouse brain cells) | activity against human cancer cell lines (human cancer cell lines) | cancer types against which most active (human cancer cell lines) | melting point [°C] |
| --- | --- | --- | --- | --- | --- | --- | --- | --- | --- | --- | --- | --- | --- | --- | --- | --- | --- | --- | --- | --- |
| O=C(CCCCCNC(=O)c1ccccc1S)Nc1cccnc1 [Compound 205, 2-Mercapto-N-[5-(pyridin-3-ylcarbamoyl)pentyl]benzamide] | 24.8 | 47.6 | > 100 | 1.8 | 16.1 | 22 | 53.1 | 18.7 | 11.9 | 50.2 | 6.2 | ~60 | 58.3 | 26.3 | active | shows activity | high viability | low uM range; also recorded: active against multiple human cancer cell lines at low micromolar concentrations | most active against lung adenocarcinoma, stomach cancer, pancreatic cancer, and breast cancer | – |
| CN(C)c1ccc(NC(=O)CCCCCNC(=O)c2ccccc2S)cc1 [Compound 206, 2-Mercapto-N-[5-(4-dimethylamino-3-yl-carbamoyl)pentyl]benzamide] | – | – | – | – | – | – | – | – | – | – | – | – | – | – | – | – | – | – | – | 108 to 110 |
